# Laboratory results from US12055553B2, “Method for diagnosing risk for inflammatory disease through glycan profiling” (The Regents of the University of California, priority 2017, dated 2024).
# Experiments:
# Caco-2 cells = format: cell-based; conditions: for change in sialylated glycans / change in fucosylated glycans / fucosylation: fucose 25 mM, butyrate 10 mM; for decrease in sialylated glycans collectively / increase in fucosylated glycans collectively: GlcNAc 25 mM, cell line not given; for decrease in sialylated glycans collectively / increase in fucosylated glycans collectively / increase in abundance of non-decorated complex/hybrid type N-glycans: GalNAc; for change in fucosylated glycans / fucosylation: acetate, lactate
# Method: (§1) We examined whether supplementation of free monosacchaides derived from diet changes N-glycosylation outcomes on the intestinal cell-surface at concentrations relevant to physiological conditions. Changes in glycosylation were assessed by globally releasing glycans from membrane proteins extracted from fully differentiated (Caco-2) and partially differentiated (HT-29) intestinal epithelial cells and analyzing the mixture by porous graphitized carbon (PGC)-LC-MS. […] The glycan profile under normal growth conditions was used as a frame of reference with which to compare the glycome at varied environments.
# (§2) Human colorectal adenocarcinoma Caco-2 cells derived from a person, were obtained from American Type Culture Collection (ATCC, VA) and grown in Eagle's Minimum Essential Medium (EMEM) supplemented with non-essential amino acids, 2 mM L-glutamine, 10% (v/v) fetal bovine serum (Life Technologies, NY), 1 mM sodium pyruvate, 1.5 g/L sodium bicarbonate, 100 U/mL penicillin, and 100 μg/mL streptomycin. Alternatively, Caco-2 cells were grown in Dulbecco's Modified Eagle's Medium (DMEM) supplemented with 10% (v/v) fetal bovine serum, 100 U/mL penicillin, and 100 μg/mL streptomycin. Human colorectal adenocarcinoma HT-29 cells, derived from a person, were obtained from ATCC and grown in McCoy's 5A medium supplemented with 10% (v/v) fetal bovine serum, 100 U/mL penicillin, and 100 μg/mL streptomycin. Cells were subcultured at 80% confluency and maintained at 37° C. in a humidified incubator with 5% CO=2. All treatments were added to the media after cell differentiation. Caco-2 cells were fully differentiated 14-days post-confluency. HT-29 cells were partially differentiated 4-days post-confluency. After 72 h, cells were collected in biological triplicates by scraping A fixed count of 2×10^6 viable cells was used for each experiment Passage number between experiments was controlled to no higher than P40 and a delta P of no more than 20. High passage cells were scraped after P80. Media was renewed three times a week unless specified. Monolayer integrity and quality of cell borders were evaluated under the microscope routinely during growth and before harvest.
# (§3) In brief harvested cells were resuspended in homogenization buffer containing 0.25 M sucrose, 20 mM HEPES-KOH (pH 7.4), and 1:100 protease inhibitor (EMD Millipore, CA). Cell lysis was performed on ice using a probe sonicator (Qsonica, CT) with five alternating and on and off pulses in 5 and 10 s intervals, respectively. Lysates were […] at 2,000×g for 10 min to remove the nuclear fraction and cellular debris. The supernatant was collected and brought to 1 mL with homogenization buffer for ultracentrifugation at 200,000×g for 45 min at 4° C. The pallet was resuspended and repelleted by ultracentrifugation in 0.2 M Na2CO3 (pH 11) followed by water to fragment the endoplasmic reticulum and remove the cytoplasmic fraction, respectively. The resulting membrane faction was isolated and stored at −20° C. until further processing.
# (§4) Membrane pellets were resuspended with 100 μL of 100 mM ammonium bicarbonate in 5 mM dithiothreitol and heated for 10 s at 100° C. to thermally denature the proteins. […] After addition of 400 μL of chilled ethanol, samples were placed in −80° C. for 1.5 h and centrifuged for 20 min at 21,130×g to precipitate residual deglycosylated proteins. The supernatant containing the released N-glycans was collected and dried. N-Glycans were purified by solid phase extraction containing a porous graphitized carbon (PGC) matrix. Eluted fractions were dried in vacuo.
# THP-1 cells = experiment: Lectin array of THP-1 monocyte cell surface glycan composition after monosaccharide supplementation; format: cell-based; conditions: 3 days
# Method: THP-1 cells (monocyte cell line) were incubated with different sugars (i.e. monosaccharides) for 3 days. Lectin arrays were used to detect changes in the cell surface glycan composition. Secreted HDL from the cell supernatant (monocytes secrete their own HDL) was isolated and then analyzed to determine the glycan composition.
# • ConA (Concanavalin A): binds internal and nonreducing terminal α-D-mannosyl (αMan) and α-D-glucosyl groups (αGIc) • JAC (Jacalin): binds galactose-containing O-glycoproteins (Galβ3GalNac) • SNA (Sambucus nigra): binds sialic acid attached to terminal galactose in α-2,6 and to a lesser degree, α-2,3 linkage (Neu5Acα6Gal/GalNac) • AAL (Aleuria auanda lectin): binds fucose linked (α-1,6) to N-acetylglucosamine or to fucose linked (α-1,3) to N-acetyllactosamine related structures, exposed core (α-1, 6) and outer arm (α-1, 2 or α-1, 3) linked fucose moieties. Sugar Treatments: • L-fucose: Tested 2 doses: 300 umol/L (physiologic) and 100 mmol/L. (Marquardt T, Blood, December 15; 94(12):3976-85, 1999): Named L-Fuc Low and L-Fuc High • Fructose: Tested 2 doses: 27 mmol/L (physiologic) and 100 mmol/L. (Hui H, Pancreas, August 38(6): 706-12, 2009); Named Fruc Low and Fruc High • N-acetylglucosamine (GlcNAc): Tested 1 dose: 100 mmol/L. (Villiger TK, Controlling the time evolution of mAb N-finked glycosylation, Part I: Microbioreactor experiments, Biotechnol Prog, September; 32(5):1123-1134, 2016) • Galactose: The two doses for the galactose treatment in the glycan array experiments were: 150 mmol/L and 75 mmol/L. (Villiger TK, Controlling the time evolution of mAb N-linked glycosylation, Part II: Model-based predictions, Biotechnol Prog, September; 32(5):135-1148, 2016)
# HT-29 cells = experiment: Cell surface N-glycan profiling (PGC-LC-MS) of HT-29 after supplementation; format: cell-based, Human
# Method: as §1, §2, §3, §4
# [1] = Caco-2, 72 h, Ac5-Sia up to 10 mM, glutamine 10 mM
# [2] = single dose (GlcNAc 100 mmol/L) or dose not distinguished
# [3] = high dose (galactose 150 mmol/L, fructose 100 mmol/L, L-fucose 100 mmol/L)
# [4] = low dose (galactose 75 mmol/L, fructose 27 mmol/L, L-fucose 300 umol/L)
smiles,measurement,setting,value
"CC(=O)N[C@H]1[C@H]([C@H](OC(C)=O)[C@@H](COC(C)=O)OC(C)=O)OC(OC(C)=O)(C(=O)O)C[C@@H]1OC(C)=O (stereo partly shown) [Ac5-Sia, 2,4,7,8,9-penta-O-acetyl N-acetylneuraminic acid]",change in monofucosylated glycans,"Caco-2 cells; Ac5-Sia up to 10 mM, 72 h",significant increases
same,change in sialylated glycans,Caco-2 cells; [1],remained relatively unchanged
"CC(=O)N[C@H]1C(O)O[C@H](CO)[C@H](O)[C@@H]1O (stereo partly shown) [GalNAc, N-acetylgalactosamine]",decrease in sialylated glycans collectively,Caco-2 cells; 72 h,31.9%
same,increase in fucosylated glycans collectively,Caco-2 cells; 72 h,120%
same,increase in abundance of non-decorated complex/hybrid type N-glycans,"Caco-2 cells; Caco-2, 72 h, fructose 50 mM",234%
same,fold increase of Hex3HexNAc4Fuc1,"Caco-2 cells; GalNAc supplementation, 72 h",13 fold
same,fold increase of Hex3HexNAc5Fuc1,"Caco-2 cells; GalNAc supplementation, 72 h",7 fold
"CC(=O)N[C@H]1C(O)O[C@H](CO)[C@@H](O)[C@@H]1O (stereo partly shown) [GlcNAc, N-acetylglucosamine]",AAL binding (fucosylated glycans),THP-1 cells; [2],decreased
same,ConA binding (glucose or mannose-terminated glycans),THP-1 cells; [2],decreased
same,JAC binding (terminal galactose containing glycans),THP-1 cells; [2],decreased
same,SNA binding (terminal sialic acid),THP-1 cells; [2],did not change
same,decrease in sialylated glycans collectively,Caco-2 cells; 72 h,53.9%
same,increase in fucosylated glycans collectively,Caco-2 cells; 72 h,61.2%
CC(=O)O [acetate],change in fucosylated glycans / fucosylation,"Caco-2 cells; Caco-2, 72 h, glutamine 10 mM",significant increase
same,fold decrease of Hex6HexNAc6Fuc1NeuAc3,"Caco-2 cells; Caco-2, SCFA 10 mM, 72 h",4.7 fold
same,fold decrease of Hex7HexNAc7Fuc1NeuAc1,"Caco-2 cells; Caco-2, SCFA 10 mM, 72 h",2.7 fold
same,fold increase of Hex6HexNAc6NeuAc1,"Caco-2 cells; Caco-2, SCFA 10 mM, 72 h",8.1 fold
CCCC(=O)O [butyrate],"fold increase of each of Hex3HexNAc4Fuc1, Hex6HexNAc7Fuc1, Hex7HexNAc7Fuc1","HT-29 cells; HT-29, butyrate 10 mM, 72 h",more than 13 fold
same,increase in fucosylation,"HT-29 cells; HT-29, butyrate 10 mM, 72 h",262%
O=C(CO)[C@@H](O)[C@H](O)[C@H](O)CO [fructose],AAL binding (fucosylated glycans),THP-1 cells; [3],decreased
same,JAC binding (terminal galactose containing glycans),THP-1 cells; [3],decreased
same,SNA binding (terminal sialic acid),THP-1 cells; [3],no effect
same,AAL binding (fucosylated glycans),THP-1 cells; [4],decreased
same,SNA binding (terminal sialic acid),THP-1 cells; [4],decreased
same,ConA binding (glucose or mannose-terminated glycans),THP-1 cells; [2],decreased
same,increase in abundance of high mannose type N-glycans,"Caco-2 cells; Caco-2, 72 h, fructose 50 mM, glutamine 10 mM",511%
same,increase in abundance of non-decorated complex/hybrid type N-glycans,"Caco-2 cells; Caco-2, 72 h, fructose 50 mM",672%
same,"fold increase of each of Hex3HexNAc4Fuc1, Hex4HexNAc5Fuc1, Hex6HexNAc4Fuc1, Hex5HexNAc5Fuc1","Caco-2 cells; Caco-2, fructose 50 mM, 72 h",more than 4 fold
same,change in fucosylated glycans,"HT-29 cells; HT-29, 72 h, fructose 50 mM, glutamine 10 mM",remained unaltered
same,change in high mannose type glycans,"HT-29 cells; HT-29, 72 h, mannose, fructose 50 mM, glutamine 10 mM, glutamate 2 mM",remained unaltered
"C[C@H](O)[C@@H](O)[C@@H](O)[C@H](O)C=O [fucose, L-fucose]",AAL binding (fucosylated glycans),THP-1 cells; [3],decreased
same,ConA binding (glucose or mannose-terminated glycans),THP-1 cells; [3],decreased
same,JAC binding (terminal galactose containing glycans),THP-1 cells; [3],decreased
same,SNA binding (terminal sialic acid),THP-1 cells; [3],increased
same,AAL binding (fucosylated glycans),THP-1 cells; [4],decreased
same,ConA binding (glucose or mannose-terminated glycans),THP-1 cells; [4],decreased
same,JAC binding (terminal galactose containing glycans),THP-1 cells; [4],decreased
same,SNA binding (terminal sialic acid),THP-1 cells; [4],increased
same,change in sialylated glycans,Caco-2 cells; [1],overall decrease
same,change in fucosylated glycans / fucosylation,"Caco-2 cells; Caco-2, 72 h, glutamine 10 mM",neither the total levels nor the degree of fucosylation deviated significantly
